Assays:
[1] = biological target: Tyrosine-protein kinase Fer (Homo sapiens) (UniProt P16591); details: Compound concentration 100.0 nM
[2] = test system: Tyrosine-protein kinase ABL1 (Homo sapiens), P00519 [F317I]; details: Compound concentration 100.0 nM
[3] = biological target: STE20/SPS1-related proline-alanine-rich protein kinase (Homo sapiens) (UniProt Q9UEW8); details: Compound concentration 100.0 nM
[4] = biological target: Ribosomal protein S6 kinase alpha-5 (Homo sapiens) (UniProt O75582); details: Compound concentration 100.0 nM
[5] = biological target: Bone morphogenetic protein receptor type-1A (Homo sapiens) (UniProt P36894); details: Compound concentration 100.0 nM
[6] = test system: Tyrosine-protein kinase ABL1 (Homo sapiens), P00519 [Q252H]; details: Compound concentration 100.0 nM
[7] = biological target: Mitogen-activated protein kinase 14 (Homo sapiens) (UniProt Q16539); details: Compound concentration 100.0 nM
[8] = biological target: TGF-beta receptor type-1 (Homo sapiens) (UniProt P36897); details: Compound concentration 100.0 nM
[9] = biological target: Mitogen-activated protein kinase kinase kinase 12 (Homo sapiens) (UniProt Q12852); details: Compound concentration 100.0 nM
[10] = biological target: Tyrosine-protein kinase ABL1 (Homo sapiens) (UniProt P00519); details: Compound concentration 100.0 nM
[11] = biological target: Serine/threonine-protein kinase N2 (Homo sapiens) (UniProt Q16513); details: Compound concentration 100.0 nM
[12] = biological target: Serine/threonine-protein kinase SIK3 (Homo sapiens) (UniProt Q9Y2K2); details: Compound concentration 100.0 nM
[13] = biological target: Mitogen-activated protein kinase 11 (Homo sapiens, UniProt Q15759); experiment: NanoBRET (SGC-Frankfurt) (MAPK11)
[14] = biological target: Rhodopsin kinase GRK7 (Homo sapiens) (UniProt Q8WTQ7); details: Compound concentration 100.0 nM
[15] = biological target: Phosphatidylinositol 5-phosphate 4-kinase type-2 beta (Homo sapiens) (UniProt P78356); details: Compound concentration 100.0 nM
[16] = biological target: Bone morphogenetic protein receptor type-1B (Homo sapiens) (UniProt O00238); details: Compound concentration 100.0 nM
[17] = biological target: Mitogen-activated protein kinase kinase kinase 6 (Homo sapiens) (UniProt O95382); details: Compound concentration 100.0 nM
[18] = biological target: Sigma intracellular receptor 2 (Homo sapiens) (UniProt Q5BJF2); details: Compound concentration 10.0 uM
[19] = biological target: Sodium-dependent dopamine transporter (Homo sapiens) (UniProt Q01959); details: Compound concentration 10.0 uM
[20] = biological target: 5-hydroxytryptamine receptor 2C (Homo sapiens) (UniProt P28335); details: Compound concentration 10.0 uM
[21] = biological target: GABA-A receptor; anion channel (Rattus norvegicus) (UniProt O09028+P15431+P18506+P18508+P19969+P20236+P23574+P23576+P28471+P28473+P30191+P62813+P63079+P63138+Q91ZM7+Q9ES14); details: Compound concentration 10.0 uM
[22] = biological target: D(3) dopamine receptor (Homo sapiens) (UniProt P35462); details: Compound concentration 10.0 uM
[23] = biological target: 5-hydroxytryptamine receptor 1B (Homo sapiens) (UniProt P28222); details: Compound concentration 10.0 uM
[24] = biological target: Beta-1 adrenergic receptor (Homo sapiens) (UniProt P08588); details: Compound concentration 10.0 uM
[25] = biological target: Beta-2 adrenergic receptor (Homo sapiens) (UniProt P07550); details: Compound concentration 10.0 uM
[26] = biological target: D(2) dopamine receptor (Homo sapiens) (UniProt P14416); details: Compound concentration 10.0 uM
[27] = biological target: Sigma non-opioid intracellular receptor 1 (Homo sapiens) (UniProt Q99720); details: Compound concentration 10.0 uM
[28] = biological target: Histamine H1 receptor (Homo sapiens) (UniProt P35367); details: Compound concentration 10.0 uM
[29] = biological target: Muscarinic acetylcholine receptor M3 (Homo sapiens) (UniProt P20309); details: Compound concentration 10.0 uM
[30] = biological target: D(4) dopamine receptor (Homo sapiens) (UniProt P21917); details: Compound concentration 10.0 uM
[31] = biological target: Alpha-1D adrenergic receptor (Homo sapiens) (UniProt P25100); details: Compound concentration 10.0 uM
[32] = biological target: Histamine H4 receptor (Homo sapiens) (UniProt Q9H3N8); details: Compound concentration 10.0 uM
[33] = biological target: 5-hydroxytryptamine receptor 5A (Homo sapiens) (UniProt P47898); details: Compound concentration 10.0 uM
[34] = biological target: Muscarinic acetylcholine receptor M4 (Homo sapiens) (UniProt P08173); details: Compound concentration 10.0 uM
[35] = biological target: 5-hydroxytryptamine receptor 1D (Homo sapiens) (UniProt P28221); details: Compound concentration 10.0 uM
[36] = biological target: D(1A) dopamine receptor (Homo sapiens) (UniProt P21728); details: Compound concentration 10.0 uM
[37] = biological target: Alpha-2A adrenergic receptor (Homo sapiens) (UniProt P08913); details: Compound concentration 10.0 uM
[38] = biological target: Muscarinic acetylcholine receptor M1 (Homo sapiens) (UniProt P11229); details: Compound concentration 10.0 uM
[39] = biological target: Alpha-2C adrenergic receptor (Homo sapiens) (UniProt P18825); details: Compound concentration 10.0 uM
[40] = biological target: 5-hydroxytryptamine receptor 6 (Homo sapiens) (UniProt P50406); details: Compound concentration 10.0 uM
[41] = biological target: Sodium-dependent noradrenaline transporter (Homo sapiens) (UniProt P23975); details: Compound concentration 10.0 uM
[42] = biological target: Serine/threonine-protein kinase Chk2 (Homo sapiens, UniProt O96017); experiment: NanoBRET (SGC-Frankfurt) (CHEK2)
[43] = biological target: Histamine H3 receptor (Homo sapiens) (UniProt Q9Y5N1); details: Compound concentration 10.0 uM
[44] = biological target: Mu-type opioid receptor (Homo sapiens) (UniProt P35372); details: Compound concentration 10.0 uM
[45] = biological target: 5-hydroxytryptamine receptor 7 (Homo sapiens) (UniProt P34969); details: Compound concentration 10.0 uM

Bone morphogenetic protein receptor type-1B (Homo sapiens), sequence (O00238 whole entry): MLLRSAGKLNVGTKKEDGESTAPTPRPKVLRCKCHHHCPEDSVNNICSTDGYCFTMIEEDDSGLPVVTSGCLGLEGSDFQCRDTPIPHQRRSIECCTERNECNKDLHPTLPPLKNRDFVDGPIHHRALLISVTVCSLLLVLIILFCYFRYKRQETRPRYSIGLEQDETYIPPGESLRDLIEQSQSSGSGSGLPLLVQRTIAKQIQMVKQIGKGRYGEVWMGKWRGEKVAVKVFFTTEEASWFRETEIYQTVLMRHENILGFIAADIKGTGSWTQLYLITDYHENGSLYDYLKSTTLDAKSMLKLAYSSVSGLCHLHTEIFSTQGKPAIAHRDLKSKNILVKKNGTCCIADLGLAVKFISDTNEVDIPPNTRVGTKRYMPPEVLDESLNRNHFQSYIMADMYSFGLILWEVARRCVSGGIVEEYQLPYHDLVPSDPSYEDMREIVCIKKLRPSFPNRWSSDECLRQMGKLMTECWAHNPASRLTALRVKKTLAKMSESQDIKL
TGF-beta receptor type-1 (Homo sapiens), sequence (P36897 whole entry): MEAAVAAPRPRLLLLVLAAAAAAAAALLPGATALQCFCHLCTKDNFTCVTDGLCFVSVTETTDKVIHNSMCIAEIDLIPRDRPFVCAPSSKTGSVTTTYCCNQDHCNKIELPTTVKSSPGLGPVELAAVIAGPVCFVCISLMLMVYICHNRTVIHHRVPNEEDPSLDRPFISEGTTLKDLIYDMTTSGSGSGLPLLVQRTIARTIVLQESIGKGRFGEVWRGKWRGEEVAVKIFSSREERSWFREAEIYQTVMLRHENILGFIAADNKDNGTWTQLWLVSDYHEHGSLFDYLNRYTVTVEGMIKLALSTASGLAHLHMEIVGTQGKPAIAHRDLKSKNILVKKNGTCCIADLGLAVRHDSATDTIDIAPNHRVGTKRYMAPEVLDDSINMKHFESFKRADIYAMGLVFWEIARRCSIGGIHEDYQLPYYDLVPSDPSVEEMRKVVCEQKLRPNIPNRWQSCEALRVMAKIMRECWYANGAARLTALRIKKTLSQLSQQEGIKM
Tyrosine-protein kinase Fer (Homo sapiens), sequence (P16591 whole entry, looked up): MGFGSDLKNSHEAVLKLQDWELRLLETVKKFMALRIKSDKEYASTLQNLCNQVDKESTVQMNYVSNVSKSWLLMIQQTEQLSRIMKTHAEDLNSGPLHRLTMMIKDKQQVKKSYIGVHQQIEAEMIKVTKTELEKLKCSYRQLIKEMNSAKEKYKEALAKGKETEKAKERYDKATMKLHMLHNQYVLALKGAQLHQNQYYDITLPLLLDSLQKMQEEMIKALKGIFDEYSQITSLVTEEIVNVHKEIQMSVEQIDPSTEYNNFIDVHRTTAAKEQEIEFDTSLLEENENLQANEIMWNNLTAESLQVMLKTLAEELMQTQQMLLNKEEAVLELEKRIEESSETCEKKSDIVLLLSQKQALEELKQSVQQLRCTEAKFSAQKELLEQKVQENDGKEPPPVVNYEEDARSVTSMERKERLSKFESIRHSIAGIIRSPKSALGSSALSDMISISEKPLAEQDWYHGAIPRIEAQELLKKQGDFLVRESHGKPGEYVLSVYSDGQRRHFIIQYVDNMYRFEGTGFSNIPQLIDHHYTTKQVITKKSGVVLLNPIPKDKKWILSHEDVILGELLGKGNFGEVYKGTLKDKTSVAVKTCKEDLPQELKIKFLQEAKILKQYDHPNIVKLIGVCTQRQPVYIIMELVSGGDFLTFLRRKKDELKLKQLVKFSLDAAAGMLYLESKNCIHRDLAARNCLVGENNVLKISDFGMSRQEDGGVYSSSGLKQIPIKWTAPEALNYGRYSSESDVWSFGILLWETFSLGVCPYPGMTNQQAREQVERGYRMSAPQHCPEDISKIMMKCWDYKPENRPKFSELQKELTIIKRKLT
Bone morphogenetic protein receptor type-1A (Homo sapiens), sequence (P36894 whole entry): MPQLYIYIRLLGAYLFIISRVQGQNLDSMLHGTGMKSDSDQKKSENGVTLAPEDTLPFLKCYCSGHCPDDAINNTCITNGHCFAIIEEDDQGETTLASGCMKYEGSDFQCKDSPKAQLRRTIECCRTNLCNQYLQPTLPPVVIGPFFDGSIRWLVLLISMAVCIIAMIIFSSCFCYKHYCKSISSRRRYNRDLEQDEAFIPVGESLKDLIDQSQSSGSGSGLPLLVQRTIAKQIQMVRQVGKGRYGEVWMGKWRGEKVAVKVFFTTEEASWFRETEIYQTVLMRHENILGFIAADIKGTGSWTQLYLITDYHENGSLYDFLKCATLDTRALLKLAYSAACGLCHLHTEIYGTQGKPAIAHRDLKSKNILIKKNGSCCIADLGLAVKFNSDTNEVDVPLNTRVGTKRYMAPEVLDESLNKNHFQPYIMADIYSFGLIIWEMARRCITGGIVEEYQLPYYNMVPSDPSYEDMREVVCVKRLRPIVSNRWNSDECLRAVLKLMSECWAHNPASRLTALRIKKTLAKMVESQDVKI
Mitogen-activated protein kinase kinase kinase 12 (Homo sapiens), sequence (Q12852 whole entry): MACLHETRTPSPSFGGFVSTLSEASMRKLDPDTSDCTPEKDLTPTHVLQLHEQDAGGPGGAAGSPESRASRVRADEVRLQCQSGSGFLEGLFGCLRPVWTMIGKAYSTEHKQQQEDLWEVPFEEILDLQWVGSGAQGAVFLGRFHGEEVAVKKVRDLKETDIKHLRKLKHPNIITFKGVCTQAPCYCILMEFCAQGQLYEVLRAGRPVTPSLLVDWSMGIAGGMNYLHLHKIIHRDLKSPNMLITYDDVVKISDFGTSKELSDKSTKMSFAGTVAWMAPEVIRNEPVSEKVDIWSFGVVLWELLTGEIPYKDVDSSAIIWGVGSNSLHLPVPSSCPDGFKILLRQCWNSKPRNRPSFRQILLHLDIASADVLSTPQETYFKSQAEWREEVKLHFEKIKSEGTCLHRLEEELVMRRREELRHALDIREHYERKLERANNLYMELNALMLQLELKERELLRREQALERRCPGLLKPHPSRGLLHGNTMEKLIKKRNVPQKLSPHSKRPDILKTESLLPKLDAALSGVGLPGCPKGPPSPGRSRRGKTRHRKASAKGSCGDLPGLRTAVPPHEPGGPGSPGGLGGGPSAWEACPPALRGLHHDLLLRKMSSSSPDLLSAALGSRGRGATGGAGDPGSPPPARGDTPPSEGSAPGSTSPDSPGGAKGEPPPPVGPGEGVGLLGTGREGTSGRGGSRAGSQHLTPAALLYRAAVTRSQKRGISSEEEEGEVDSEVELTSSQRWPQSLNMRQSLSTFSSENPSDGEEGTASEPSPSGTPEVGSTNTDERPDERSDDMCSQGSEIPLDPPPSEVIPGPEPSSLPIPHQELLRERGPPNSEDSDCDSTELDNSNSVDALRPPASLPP
Serine/threonine-protein kinase SIK3 (Homo sapiens), sequence (Q9Y2K2 whole entry, looked up): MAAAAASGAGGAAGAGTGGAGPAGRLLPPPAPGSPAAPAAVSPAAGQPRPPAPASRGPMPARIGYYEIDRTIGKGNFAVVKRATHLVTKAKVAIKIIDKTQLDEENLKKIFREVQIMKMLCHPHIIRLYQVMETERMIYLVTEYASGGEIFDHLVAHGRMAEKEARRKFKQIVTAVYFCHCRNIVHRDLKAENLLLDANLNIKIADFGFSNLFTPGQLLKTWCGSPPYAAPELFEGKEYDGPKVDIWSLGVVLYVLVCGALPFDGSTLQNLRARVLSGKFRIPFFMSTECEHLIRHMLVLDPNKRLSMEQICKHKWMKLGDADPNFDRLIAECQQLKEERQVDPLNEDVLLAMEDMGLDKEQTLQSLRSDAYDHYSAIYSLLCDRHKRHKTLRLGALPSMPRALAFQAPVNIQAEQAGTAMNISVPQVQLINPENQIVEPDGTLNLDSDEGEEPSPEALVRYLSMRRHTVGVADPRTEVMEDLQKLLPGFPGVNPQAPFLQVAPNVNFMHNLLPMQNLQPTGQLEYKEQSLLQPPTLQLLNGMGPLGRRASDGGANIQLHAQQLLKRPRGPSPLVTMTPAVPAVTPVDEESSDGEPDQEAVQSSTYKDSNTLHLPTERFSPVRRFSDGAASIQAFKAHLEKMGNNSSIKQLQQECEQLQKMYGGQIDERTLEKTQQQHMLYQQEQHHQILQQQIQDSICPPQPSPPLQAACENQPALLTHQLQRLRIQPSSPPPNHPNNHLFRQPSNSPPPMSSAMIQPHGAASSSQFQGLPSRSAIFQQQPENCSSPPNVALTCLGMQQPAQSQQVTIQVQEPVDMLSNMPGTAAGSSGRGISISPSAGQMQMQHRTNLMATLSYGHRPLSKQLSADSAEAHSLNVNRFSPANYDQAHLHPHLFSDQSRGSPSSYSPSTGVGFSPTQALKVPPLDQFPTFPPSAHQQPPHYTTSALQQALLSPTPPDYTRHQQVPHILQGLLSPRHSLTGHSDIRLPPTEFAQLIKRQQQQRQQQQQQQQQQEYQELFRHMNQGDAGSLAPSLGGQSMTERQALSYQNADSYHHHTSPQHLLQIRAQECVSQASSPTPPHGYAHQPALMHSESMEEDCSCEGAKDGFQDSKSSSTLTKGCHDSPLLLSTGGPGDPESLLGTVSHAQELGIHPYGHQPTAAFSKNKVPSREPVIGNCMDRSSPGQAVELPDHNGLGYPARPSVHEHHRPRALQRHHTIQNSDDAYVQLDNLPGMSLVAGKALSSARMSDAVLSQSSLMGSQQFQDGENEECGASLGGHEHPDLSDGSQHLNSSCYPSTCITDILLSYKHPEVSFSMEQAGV
Phosphatidylinositol 5-phosphate 4-kinase type-2 beta (Homo sapiens), sequence (P78356 whole entry): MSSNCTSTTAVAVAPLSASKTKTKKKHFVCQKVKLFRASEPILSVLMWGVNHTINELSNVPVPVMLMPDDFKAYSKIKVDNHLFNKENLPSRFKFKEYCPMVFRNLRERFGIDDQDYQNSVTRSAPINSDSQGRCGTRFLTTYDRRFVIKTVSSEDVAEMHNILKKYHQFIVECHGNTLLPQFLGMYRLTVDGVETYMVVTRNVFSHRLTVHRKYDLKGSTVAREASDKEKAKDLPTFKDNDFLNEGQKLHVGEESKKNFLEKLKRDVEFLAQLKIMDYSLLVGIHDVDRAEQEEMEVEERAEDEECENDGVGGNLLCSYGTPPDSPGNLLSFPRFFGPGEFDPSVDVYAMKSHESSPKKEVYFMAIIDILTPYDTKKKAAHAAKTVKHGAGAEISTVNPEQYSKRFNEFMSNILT

Work on `CS(=O)(=O)N1CCCC(NC(=O)[C@H](CCC2CCCCC2)NC(=O)c2ccc(CNc3ncnc4c3nnn4-c3ccccc3)cc2)C1` (stereo partly drawn) [SR-301] yielded a residual activity [1] of 86%, a residual activity [2] of 95% and a residual activity [3] of 100%. It also gave a residual activity [4] of 95%, a residual activity [5] of 90% and a residual activity [6] of 89%. For the same molecule, the residual activity [7] was 100%, the residual activity [8] was 100% and the residual activity [9] was 100%. The residual activity [10] was 88%, the residual activity [11] was 95% and the residual activity [12] was 78%. For the same molecule, the IC50 [13] was 1.63 µM (not active), the residual activity [14] was 100% and the residual activity [15] was 100%. The residual activity [16] was 91% and the residual activity [17] was 100%.

`CS(=O)(=O)N1CCCC(NC(=O)[C@H](CCC2CCCCC2)NC(=O)c2ccc(CNC(=O)c3cnc4ccccn34)cc2)C1` (stereo partly drawn) [SR-302] gave an inhibition [18] of 32%, a residual activity [1] of 99% and a residual activity [2] of 85%. The inhibition [19] was 11.5%, the residual activity [3] was 88% and the inhibition [20] was 8.24%. It also gave an inhibition [21] of 31.9%, an inhibition [22] of 2.38% and an inhibition [23] of 10.9%. The inhibition [24] was 20.3%, the inhibition [25] was 16.3% and the inhibition [26] was 7.14%. The inhibition [27] was 32%, the inhibition [28] was 3.62% and the residual activity [5] was 94%. For the same molecule, the residual activity [6] was 37%, the inhibition [29] was 20.6% and the inhibition [30] was 3.78%. It also gave a residual activity [8] of 84%, a residual activity [9] of 100% and an inhibition [31] of 6.47%. It also gave an inhibition [32] of -7.56%, an inhibition [33] of 3.1% and an inhibition [34] of -2.24%. The inhibition [35] was 18.9%, the inhibition [36] was -8.61% and the inhibition [37] was 7.22%. It also gave an inhibition [38] of 28.4%, a residual activity [11] of 100% and an inhibition [39] of 5.25%. The residual activity [12] was 100%, the inhibition [40] was 18.2% and the residual activity [14] was 91%. It also gave an inhibition [41] of 3%, a residual activity [15] of 100% and an IC50 [42] greater than 25 µM. The inhibition [43] was 0.32%, the residual activity [16] was 100% and the residual activity [17] was 100%. The inhibition [44] was 45.3% and the inhibition [45] was 11.3%.

Source: ChEMBL document CHEMBL4507324 (2021)
